Six molecules from US10087229B2, “Peptide compound” (TAKEDA PHARMACEUTICAL COMPANY LIMITED, priority 2013, dated 2018) can be followed below.

Square brackets hold non-standard residues; d marks the D form. Peptide text beside a SMILES is read from it. * marks the point of attachment. Tyr(Nα-amidino) = N=C(N)N[C@@H](Cc1ccc(O)cc1)C(=O)*; αMeY = C[C@](N)(Cc1ccc(O)cc1)C(=O)O; αMeF = C[C@](N)(Cc1ccccc1)C(=O)O; Cha = N[C@@H](CC1CCCCC1)C(=O)O; Aib = CC(C)(N)C(=O)O; Bz = O=C(c1ccccc1)*

This assay deals with male C57BL/6J mouse. In words: 2-days continuous subcutaneous administration test (feeding suppressive activity). The assay is classed as in vivo. The settings on record: 10 nmol/kg/day, subcutaneous Alzet pump, 2-days cumulative food consumption, control (solvent alone) = 0%. On the procedure: 2-Days Continuous Subcutaneous Administration Test
The feeding suppressive activity of a test compound was examined by the method described below.
The test compound was dissolved in a solvent (50% DMSO) so that sustained release would occur at 10 nmol/kg/day, and the solution was filled in the Alzet Pump (DURECT Corporation, model: 1003D). The pump thus filled with the solution to be administered was immersed in physiological saline for priming, and then used. The pump was embedded by the following method. Each male C57BL/6J mouse at 8-9 weeks of age (20-26° C., allowed to take food and water ad libitum; 12-hour bright-12-hour dark cycle) was anesthetized; the skin in the upper back thereof was incised, and the above-mentioned pump was embedded subcutaneously; the incision was sutured. After weighing, this mouse was returned to the rearing cage (reared alone), and given previously weighed food; food consumption as of 2 days after the start of administration was measured. The food consumption was calculated by subtracting the amount of remaining food from the weight of the food given on the day of the start of administration. When the food consumption of a control group receiving administration of the solvent alone was regarded as a suppression rate of 0%, the feeding suppressive activity of each test compound was evaluated on the basis of 2-days cumulative food consumption after the start of administration. The food intake suppression rate (%) of the test compound was defined as (Food consumption of the control group−Food consumption of the test compound-administered group)/Food consumption of the control group×100.
For `CC[C@H](C)[C@H](NC(=O)C(C)(C)NC(=O)[C@H](Cc1ccc(O)cc1)NC(=O)[C@H](CC(=O)O)NC(=O)[C@H](CO)NC(=O)[C@@H](NC(=O)[C@](C)(Cc1ccccc1)NC(=O)[C@@H](NC(=O)CNC(=O)[C@H](CCC(=O)O)NC(=O)C(C)(C)NC(=O)[C@@H](N)Cc1ccc(O)cc1)[C@@H](C)O)[C@@H](C)O)C(=O)N[C@@H](CC1CCCCC1)C(=O)N[C@@H](CC(C)C)C(=O)N[C@@H](CC(=O)O)C(=O)N[C@@H](CCCCN)C(=O)N[C@@H](CCC(N)=O)C(=O)N[C@@H](C)C(=O)N[C@@H](CCC(N)=O)C(=O)N[C@@H](C)C(=O)N[C@@H](CCC(=O)O)C(=O)N[C@@H](Cc1ccccc1)C(=O)N[C@H](C(=O)N[C@@H](CCCCN)C(=O)N[C@@H](Cc1c[nH]c2ccccc12)C(=O)N[C@@H](CC(C)C)C(=O)N[C@@H](CC(C)C)C(=O)N[C@@H](CCCCN)C(=O)NCC(=O)NCC(=O)N1CCC[C@H]1C(=O)N[C@@H](CO)C(=O)N[C@@H](CO)C(=O)NCC(=O)N[C@@H](C)C(=O)N1CCC[C@H]1C(=O)N1CCC[C@H]1C(=O)N1CCC[C@H]1C(=O)N[C@@H](CO)C(=O)N[C@@H](CCCCN)C(N)=O)C(C)C` [Example 14] (H-Y[Aib]EGT[αMeF]TSDY[Aib]I[Cha]LDKQAQAEFVKWLLKGGPSSGAPPPSK-NH2), the “Food intake suppression (%)” value amounted to 47.47%.
The figure for `CC(C)C[C@H](NC(=O)[C@H](CC(C)C)NC(=O)[C@H](Cc1c[nH]c2ccccc12)NC(=O)[C@H](CCCCN)NC(=O)[C@@H](NC(=O)[C@H](Cc1ccccc1)NC(=O)[C@H](CCC(=O)O)NC(=O)[C@H](C)NC(=O)[C@H](CCC(N)=O)NC(=O)[C@H](C)NC(=O)[C@H](CCC(N)=O)NC(=O)[C@H](CCCCN)NC(=O)[C@H](CC(=O)O)NC(=O)[C@H](CC(C)C)NC(=O)[C@](C)(Cc1ccccc1)NC(=O)[C@H](CCCCN)NC(=O)C(C)(C)NC(=O)[C@H](Cc1ccc(O)cc1)NC(=O)[C@H](CC(=O)O)NC(=O)[C@H](CO)NC(=O)[C@@H](NC(=O)[C@](C)(Cc1ccccc1)NC(=O)[C@@H](NC(=O)CNC(=O)[C@H](CCC(=O)O)NC(=O)C(C)(C)NC(=O)[C@@H](N)Cc1ccc(O)cc1)[C@@H](C)O)[C@@H](C)O)C(C)C)C(=O)N[C@@H](CCCCN)C(=O)NCC(=O)NCC(=O)N1CCC[C@H]1C(=O)N[C@@H](CO)C(=O)N[C@@H](CO)C(=O)NCC(=O)N[C@@H](C)C(=O)N1CCC[C@H]1C(=O)N1CCC[C@H]1C(=O)N1CCC[C@H]1C(=O)N[C@@H](CO)C(=O)N[C@@H](CCCCN)C(N)=O` [Example 15] (H-Y[Aib]EGT[αMeF]TSDY[Aib]K[αMeF]LDKQAQAEFVKWLLKGGPSSGAPPPSK-NH2) is 58.80%; for `CC(C)C[C@H](NC(=O)[C@H](CC(C)C)NC(=O)[C@H](Cc1c[nH]c2ccccc12)NC(=O)[C@H](CCCCN)NC(=O)[C@@H](NC(=O)[C@H](Cc1ccccc1)NC(=O)[C@H](CCC(=O)O)NC(=O)[C@H](C)NC(=O)[C@H](CCC(N)=O)NC(=O)[C@H](C)NC(=O)[C@H](CCC(N)=O)NC(=O)[C@H](CCCCN)NC(=O)[C@H](CC(=O)O)NC(=O)[C@H](CC(C)C)NC(=O)[C@H](CC1CCCCC1)NC(=O)[C@H](CCCCN)NC(=O)C(C)(C)NC(=O)[C@H](Cc1ccc(O)cc1)NC(=O)[C@H](CC(=O)O)NC(=O)[C@H](CO)NC(=O)[C@@H](NC(=O)[C@](C)(Cc1ccccc1)NC(=O)[C@@H](NC(=O)CNC(=O)[C@H](CCC(=O)O)NC(=O)C(C)(C)NC(=O)[C@@H](N)Cc1ccc(O)cc1)[C@@H](C)O)[C@@H](C)O)C(C)C)C(=O)N[C@@H](CCCCN)C(=O)NCC(=O)NCC(=O)N1CCC[C@H]1C(=O)N[C@@H](CO)C(=O)N[C@@H](CO)C(=O)NCC(=O)N[C@@H](C)C(=O)N1CCC[C@H]1C(=O)N1CCC[C@H]1C(=O)N1CCC[C@H]1C(=O)N[C@@H](CO)C(=O)N[C@@H](CCCCN)C(N)=O` [Example 16] (H-Y[Aib]EGT[αMeF]TSDY[Aib]K[Cha]LDKQAQAEFVKWLLKGGPSSGAPPPSK-NH2) it is 54.24%.
For `CC[C@H](C)[C@H](NC(=O)C(C)(C)NC(=O)[C@H](Cc1ccc(O)cc1)NC(=O)[C@H](CC(=O)O)NC(=O)[C@H](CO)NC(=O)[C@@H](NC(=O)[C@](C)(Cc1ccccc1)NC(=O)[C@@H](NC(=O)CNC(=O)[C@H](CCC(=O)O)NC(=O)C(C)(C)NC(=O)[C@@H](N)Cc1ccc(O)cc1)[C@@H](C)O)[C@@H](C)O)C(=O)N[C@@](C)(Cc1ccc(O)cc1)C(=O)N[C@@H](CC(C)C)C(=O)N[C@@H](CC(=O)O)C(=O)N[C@@H](CCCCN)C(=O)N[C@@H](CCC(N)=O)C(=O)N[C@@H](C)C(=O)N[C@@H](CCC(N)=O)C(=O)N[C@@H](C)C(=O)N[C@@H](CCC(=O)O)C(=O)N[C@@H](Cc1ccccc1)C(=O)N[C@H](C(=O)N[C@@H](CCCCN)C(=O)N[C@@H](Cc1c[nH]c2ccccc12)C(=O)N[C@@H](CC(C)C)C(=O)N[C@@H](CC(C)C)C(=O)N[C@@H](CCCCN)C(=O)NCC(=O)NCC(=O)N1CCC[C@H]1C(=O)N[C@@H](CO)C(=O)N[C@@H](CO)C(=O)NCC(=O)N[C@@H](C)C(=O)N1CCC[C@H]1C(=O)N1CCC[C@H]1C(=O)N1CCC[C@H]1C(=O)N[C@@H](CO)C(=O)N[C@@H](CCCCN)C(N)=O)C(C)C` [Example 17] (H-Y[Aib]EGT[αMeF]TSDY[Aib]I[αMeY]LDKQAQAEFVKWLLKGGPSSGAPPPSK-NH2) the value was 55.42%.
`CC[C@H](C)[C@H](NC(=O)C(C)(C)NC(=O)[C@H](Cc1ccc(O)cc1)NC(=O)[C@H](CC(=O)O)NC(=O)[C@H](CO)NC(=O)[C@@H](NC(=O)[C@](C)(Cc1ccccc1)NC(=O)[C@@H](NC(=O)CNC(=O)[C@H](CCC(=O)O)NC(=O)C(C)(C)NC(=O)[C@H](Cc1ccc(O)cc1)NC(=O)c1ccccc1)[C@@H](C)O)[C@@H](C)O)C(=O)NC(C)(C)C(=O)N[C@@H](CC(C)C)C(=O)N[C@@H](CC(=O)O)C(=O)N[C@@H](CCCCN)C(=O)N[C@@H](CCC(N)=O)C(=O)N[C@@H](C)C(=O)N[C@@H](CCC(N)=O)C(=O)N[C@@H](C)C(=O)N[C@@H](CCC(=O)O)C(=O)N[C@@H](Cc1ccccc1)C(=O)N[C@H](C(=O)N[C@@H](CCCCN)C(=O)N[C@@H](Cc1c[nH]c2ccccc12)C(=O)N[C@@H](CC(C)C)C(=O)N[C@@H](CC(C)C)C(=O)N[C@@H](CCCCN)C(=O)NCC(=O)NCC(=O)N1CCC[C@H]1C(=O)N[C@@H](CO)C(=O)N[C@@H](CO)C(=O)NCC(=O)N[C@@H](C)C(=O)N1CCC[C@H]1C(=O)N1CCC[C@H]1C(=O)N1CCC[C@H]1C(=O)N[C@@H](CO)C(=O)N[C@@H](CCCCN)C(N)=O)C(C)C` [Example 19] (Bz-Y[Aib]EGT[αMeF]TSDY[Aib]I[Aib]LDKQAQAEFVKWLLKGGPSSGAPPPSK-NH2): the “Food intake suppression (%)” value was found to be 34.79%.
For `CC[C@H](C)[C@H](NC(=O)C(C)(C)NC(=O)[C@H](Cc1ccc(O)cc1)NC(=O)[C@H](CC(=O)O)NC(=O)[C@H](CO)NC(=O)[C@@H](NC(=O)[C@](C)(Cc1ccccc1)NC(=O)[C@@H](NC(=O)CNC(=O)[C@H](CCC(=O)O)NC(=O)C(C)(C)NC(=O)[C@H](Cc1ccc(O)cc1)NC(=N)N)[C@@H](C)O)[C@@H](C)O)C(=O)NC(C)(C)C(=O)N[C@@H](CC(C)C)C(=O)N[C@@H](CC(=O)O)C(=O)N[C@@H](CCCCN)C(=O)N[C@@H](CCC(N)=O)C(=O)N[C@@H](C)C(=O)N[C@@H](CCC(N)=O)C(=O)N[C@@H](C)C(=O)N[C@@H](CCC(=O)O)C(=O)N[C@@H](Cc1ccccc1)C(=O)N[C@H](C(=O)N[C@@H](CCCCN)C(=O)N[C@@H](Cc1c[nH]c2ccccc12)C(=O)N[C@@H](CC(C)C)C(=O)N[C@@H](CC(C)C)C(=O)N[C@@H](CCCCN)C(=O)NCC(=O)NCC(=O)N1CCC[C@H]1C(=O)N[C@@H](CO)C(=O)N[C@@H](CO)C(=O)NCC(=O)N[C@@H](C)C(=O)N1CCC[C@H]1C(=O)N1CCC[C@H]1C(=O)N1CCC[C@H]1C(=O)N[C@@H](CO)C(=O)N[C@@H](CCCCN)C(N)=O)C(C)C` [Example 22] ({Tyr(Nα-amidino)}-[Aib]EGT[αMeF]TSDY[Aib]I[Aib]LDKQAQAEFVKWLLKGGPSSGAPPPSK-NH2) the value was 35.51%.
